T1: DJ-1 (Homo sapiens, UniProt Q99497)
T1 construct: gene PARK7; recombinant DJ-1
T1 sequence (Q99497 2-189): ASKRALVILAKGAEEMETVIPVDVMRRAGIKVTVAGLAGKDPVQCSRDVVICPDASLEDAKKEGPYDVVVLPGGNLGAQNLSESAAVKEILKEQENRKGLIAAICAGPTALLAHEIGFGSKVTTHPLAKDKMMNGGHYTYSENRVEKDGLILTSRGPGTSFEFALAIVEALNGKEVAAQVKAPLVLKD

T2: DJ-1 (human (endogenous in SH-SY5Y)), Q99497
T2 chain: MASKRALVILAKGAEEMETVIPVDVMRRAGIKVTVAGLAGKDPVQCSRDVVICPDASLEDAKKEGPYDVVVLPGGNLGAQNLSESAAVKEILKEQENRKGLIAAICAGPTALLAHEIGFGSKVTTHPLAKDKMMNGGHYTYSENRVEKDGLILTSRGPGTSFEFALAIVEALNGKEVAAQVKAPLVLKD


Columns and labels:
[1] = target: T1, DJ-1; assay: quartz crystal microbalance (compound fixed on sensor chip, recombinant DJ-1 applied); type: binding
[2] = target: T2, DJ-1 (human (endogenous in SH-SY5Y)), …; assay: cross-linking; SH-SY5Y cells incubated with 1 uM compound-23 or compound-B for 20 hours, treated with various amounts of H2O2 for 3 hours, then 0.5 mM DSS (or DMSO) for 30 min; extracts analysed by Western blotting with an anti-DJ-1 antibody; details: remark: other sources report otherwise

Kd [1] [µM] | stoichiometry N [2] | Molecule
0.103 | – | COc1cc(C(=O)Nc2ccc(-c3cn4cccc(C)c4n3)cc2)cc(OC)c1OC [compound-23, N-[4-(8-methyl(4-hydroimidazo[1,2-a]pyridin-2-yl))phenyl](3,4,5-trimethoxyphenyl)carboxamide]
– | 2 | DJ-1, Q99497 1-189 (natural protein) MASKRALVILAKGAEEMETVIPVDVMRRAGIKVTVAGLAGKDPVQCSRDVVICPDASLEDAKKEGPYDVVVLPGGNLGAQNLSESAAVKEILKEQENRKGLIAAICAGPTALLAHEIGFGSKVTTHPLAKDKMMNGGHYTYSENRVEKDGLILTSRGPGTSFEFALAIVEALNGKEVAAQVKAPLVLKD

Source: PMC3141555, “Neuroprotective effect of a new DJ-1-binding compound against neurodegeneration in Parkinson's disease and stroke model rats” (2011)
